Reference: patent US11203600B2 (Denali Therapeutics Inc., priority 2017, dated 2021)

Molecular target: GST-hRIPK1 (8-327) (Homo sapiens (Human), UniProt Q13546)
Assay: Fluorescent Polarization Binding (FP Binding) assay, RIPK1
Conditions: 10 nM GST-hRIPK1 (8-327), 5 nM fluorescent-labeled ligand, RT, 30 min, mean of at least two independent experiments
How it was run: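 Compound displacement of 5 nM labelled ligand from 10 nM GST-hRIPK1 (8-327) was read as FP (531/595 nm) after 30 min at RT. Buffer: HEPES pH 7.5, NaCl, MgCl2, CHAPS, DTT, Pluronic; 1% DMSO final. IC50s were averaged over at least two independent runs.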

GST-hRIPK1 (8-327), sequence (Q13546 8-327): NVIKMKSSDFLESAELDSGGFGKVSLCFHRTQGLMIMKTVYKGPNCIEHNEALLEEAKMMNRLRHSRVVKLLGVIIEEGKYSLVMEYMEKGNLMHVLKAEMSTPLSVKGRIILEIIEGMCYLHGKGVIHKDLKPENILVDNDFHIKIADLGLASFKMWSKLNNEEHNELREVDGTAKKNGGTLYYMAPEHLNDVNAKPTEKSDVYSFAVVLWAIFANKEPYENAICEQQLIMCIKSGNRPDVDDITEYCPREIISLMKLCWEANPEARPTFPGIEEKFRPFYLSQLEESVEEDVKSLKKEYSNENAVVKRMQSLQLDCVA

SMILES: N#Cc1cncc2c1OCCN(C(=O)C1(F)CCN(C(=O)c3cccnc3)CC1)C2 [Example 95, 4-[4-fluoro-1-(pyridine-3-carbonyl)piperidine-4-carbonyl]-3,5-dihydro-2H-pyrido[3,4-f][1,4]oxazepine-9-carbonitrile]
- IC50: > 1000 nM

SMILES: CC1(C(=O)N2CCOc3c(C#N)cncc3C2)CCN(c2ncc(F)cn2)CC1(F)F (centres unmarked) [Example 96, 4-[3,3-difluoro-1-(5-fluoropyrimidin-2-yl)-4-methyl-piperidine-4-carbonyl]-3,5-dihydro-2H-pyrido[3,4-f][1,4]oxazepine-9-carbonitrile]
- IC50: 0.1 to 100 nM

SMILES: N#Cc1cncc2c1OCCN(C(=O)C1(F)CCN(c3ncc4ccccc4n3)CC1)C2 [Example 97, 4-(4-fluoro-1-quinazolin-2-yl-piperidine-4-carbonyl)-3,5-dihydro-2H-pyrido[3,4-f][1,4]oxazepine-9-carbonitrile]
- IC50: 0.1 to 100 nM

SMILES: CCC1(C(=O)N2CCOc3c(C#N)cncc3C2)CCN(c2ncc(F)cn2)CC1 [Example 98, 4-[4-ethyl-1-(5-fluoropyrimidin-2-yl)piperidine-4-carbonyl]-3,5-dihydro-2H-pyrido[3,4-f][1,4]oxazepine-9-carbonitrile]
- IC50: 100 to 1000 nM

SMILES: N#Cc1cncc2c1OCCN(C(=O)C13CCN(c4ncc(F)cn4)CC1C3(F)F)C2 (centres unmarked) [Example 99, 4-[7,7-difluoro-3-(5-fluoropyrimidin-2-yl)-3-azabicyclo[4.1.0]heptane-6-carbonyl]-3,5-dihydro-2H-pyrido[3,4-f][1,4]oxazepine-9-carbonitrile]
- IC50: 100 to 1000 nM

SMILES: N#Cc1cncc2c1OCCN(C(=O)C1(F)CCN(c3ncc(C4CC4)cn3)CC1)C2 [Example 100, 4-[1-(5-cyclopropylpyrimidin-2-yl)-4-fluoro-piperidine-4-carbonyl]-3,5-dihydro-2H-pyrido[3,4-f][1,4]oxazepine-9-carbonitrile]
- IC50: 100 to 1000 nM

SMILES: COc1cnc(N2CCC(F)(C(=O)N3CCOc4c(C#N)cncc4C3)CC2)nc1 [Example 101, 4-[4-fluoro-1-(5-methoxypyrimidin-2-yl)piperidine-4-carbonyl]-3,5-dihydro-2H-pyrido[3,4-f][1,4]oxazepine-9-carbonitrile]
- IC50: 100 to 1000 nM

SMILES: N#Cc1cncc2c1OCCN(C(=O)C1(F)CCN(c3ncc(OC(F)F)cn3)CC1)C2 [Example 102, 4-[1-[5-(difluoromethoxy)pyrimidin-2-yl]-4-fluoro-piperidine-4-carbonyl]-3,5-dihydro-2H-pyrido[3,4-f][1,4]oxazepine-9-carbonitrile]
- IC50: 100 to 1000 nM

SMILES: COc1ccnc(N2CCC(F)(C(=O)N3CCOc4c(C#N)cncc4C3)CC2)n1 [Example 103, 4-[4-fluoro-1-(4-methoxypyrimidin-2-yl)piperidine-4-carbonyl]-3,5-dihydro-2H-pyrido[3,4-f][1,4]oxazepine-9-carbonitrile]
- IC50: 0.1 to 100 nM

SMILES: C[C@@H]1COc2c(C#N)cncc2CN1C(=O)C1CCN(c2ncc(F)cn2)CC1 [Example 104, (3R)-4-(1-(5-fluoropyrimidin-2-yl)piperidine-4-carbonyl)-3-methyl-2,3,4,5-tetrahydropyrido[3,4-f][1,4]oxazepine-9-carbonitrile]
- IC50: 0.1 to 100 nM

SMILES: COC1(C(=O)N2Cc3cncc(C#N)c3OC[C@H]2C)CCN(c2ncc(F)cn2)CC1 [Example 105, (3R)-4-[1-(5-fluoropyrimidin-2-yl)-4-methoxy-piperidine-4-carbonyl]-3-methyl-3,5-dihydro-2H-pyrido[3,4-f][1,4]oxazepine-9-carbonitrile]
- IC50: 0.1 to 100 nM

SMILES: N#Cc1cncc2c1OCCN(C(=O)C1(F)CCN(c3nccn4ccnc34)CC1)C2 [Example 106, 4-(4-fluoro-1-imidazo[1,2-a]pyrazin-8-yl-piperidine-4-carbonyl)-3,5-dihydro-2H-pyrido[3,4-f][1,4]oxazepine-9-carbonitrile]
- IC50: 100 to 1000 nM

SMILES: Cn1ncc2cnc(N3CCC(F)(C(=O)N4CCOc5c(C#N)cncc5C4)CC3)cc21 [Example 107, 4-[4-fluoro-1-(1-methylpyrazolo[4,3-c]pyridin-6-yl)piperidine-4-carbonyl]-3,5-dihydro-2H-pyrido[3,4-f][1,4]oxazepine-9-carbonitrile]
- IC50: 100 to 1000 nM

SMILES: Cn1ccc2nc(N3CCC(F)(C(=O)N4CCOc5c(C#N)cncc5C4)CC3)ncc21 [Example 108, 4-[4-fluoro-1-(5-methylpyrrolo[3,2-d]pyrimidin-2-yl)piperidine-4-carbonyl]-3,5-dihydro-2H-pyrido[3,4-f][1,4]oxazepine-9-carbonitrile]
- IC50: 100 to 1000 nM

SMILES: N#Cc1cncc2c1OCCN(C(=O)C1(F)CCN(c3ccc4nccn4n3)CC1)C2 [Example 109, 4-(4-fluoro-1-imidazo[1,2-b]pyridazin-6-yl-piperidine-4-carbonyl)-3,5-dihydro-2H-pyrido[3,4-f][1,4]oxazepine-9-carbonitrile]
- IC50: 100 to 1000 nM

SMILES: N#Cc1cncc2c1OCCN(C(=O)C1(F)CCN(c3ccnc4ccnn34)CC1)C2 [Example 110, 4-(4-fluoro-1-(pyrazolo[1,5-a]pyrimidin-7-yl)piperidine-4-carbonyl)-2,3,4,5-tetrahydropyrido[3,4-f][1,4]oxazepine-9-carbonitrile]
- IC50: 0.1 to 100 nM

SMILES: N#Cc1cncc2c1OCCN(C(=O)C1(F)CCN(c3ncc4c(n3)CCC4)CC1)C2 [Example 111, 4-[1-(6,7-dihydro-5H-cyclopenta[d]pyrimidin-2-yl)-4-fluoro-piperidine-4-carbonyl]-3,5-dihydro-2H-pyrido[3,4-f][1,4]oxazepine-9-carbonitrile]
- IC50: 100 to 1000 nM

SMILES: N#Cc1cncc2c1OCCN(C(=O)C1(F)CCN(c3ncncc3F)CC1)C2 [Example 112, 4-(4-fluoro-1-(5-fluoropyrimidin-4-yl)piperidine-4-carbonyl)-2,3,4,5-tetrahydropyrido[3,4-f][1,4]oxazepine-9-carbonitrile]
- IC50: 100 to 1000 nM

SMILES: N#Cc1cncc2c1OCCN(C(=O)C1(F)CCN(c3ncccc3F)CC1)C2 [Example 113, 4-[4-fluoro-1-(3-fluoro-2-pyridyl)piperidine-4-carbonyl]-3,5-dihydro-2H-pyrido[3,4-f][1,4]oxazepine-9-carbonitrile]
- IC50: 100 to 1000 nM

SMILES: COc1ncc(F)c(N2CCC(F)(C(=O)N3CCOc4c(C#N)cncc4C3)CC2)n1 [Example 114, 4-[4-fluoro-1-(5-fluoro-2-methoxy-pyrimidin-4-yl)piperidine-4-carbonyl]-3,5-dihydro-2H-pyrido[3,4-f][1,4]oxazepine-9-carbonitrile]
- IC50: 0.1 to 100 nM

SMILES: COc1ccc(N2CCC(F)(C(=O)N3CCOc4c(C#N)cncc4C3)CC2)nn1 [Example 115, 4-[4-fluoro-1-(6-methoxypyridazin-3-yl)piperidine-4-carbonyl]-3,5-dihydro-2H-pyrido[3,4-f][1,4]oxazepine-9-carbonitrile]
- IC50: 100 to 1000 nM

SMILES: N#Cc1cncc2c1OCCN(C(=O)C1(F)CCN(c3cccnn3)CC1)C2 [Example 116, 4-(4-fluoro-1-pyridazin-3-yl-piperidine-4-carbonyl)-3,5-dihydro-2H-pyrido[3,4-f][1,4]oxazepine-9-carbonitrile]
- IC50: 100 to 1000 nM

SMILES: COc1ccnc(N2CCC(C(=O)N3CCOc4c(C#N)cncc4C3)CC2)n1 [Example 117, 4-[1-(4-methoxypyrimidin-2-yl)piperidine-4-carbonyl]-3,5-dihydro-2H-pyrido[3,4-f][1,4]oxazepine-9-carbonitrile]
- IC50: 0.1 to 100 nM
